Measurements taken from ChEMBL document CHEMBL1201862, “PubChem BioAssay data set” (2004).
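Step 1: Grow cells in 96-well plates. Step 2: Expose to compound for 48 hours at 5 concentrations. Step 3: Interpolate endpoints linearly; if unreached, use highest concentration. The concentration for 50% growth inhibition is given as GI50.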 Active and inactive are the calls of the source. Cut-off read from the data, not from the text of the source: active = GI50 up to about 1.1 µM and inactive = higher.

Legend:
Assay in all cases: NCI anticancer screen, dose series, 48 h
[1] = system: SF-539
[2] = system: SK-MEL-28
[3] = system: NCI-H522
[4] = system: HCT-116
[5] = system: IGROV-1
[6] = system: RXF 393
[7] = system: COLO 205
[8] = system: U-251
[9] = system: OVCAR-5
[10] = system: DU-145
[11] = system: HT-29
[12] = system: TK-10
[13] = system: SR
[14] = system: UACC-257
[15] = system: NCI-H460
[16] = system: MOLT-4
[17] = system: SK-MEL-2
[18] = system: UO-31
[19] = system: Hs-578T
[20] = system: A498

Row | Structure (SMILES) | GI50 [1] | GI50 [2] | GI50 [3] | GI50 [4] | GI50 [5] | GI50 [6] | GI50 [7] | GI50 [8] | GI50 [9] | GI50 [10] | GI50 [11] | GI50 [12] | GI50 [13] | GI50 [14] | GI50 [15] | GI50 [16] | GI50 [17] | GI50 [18] | GI50 [19] | GI50 [20]
1 | CCCCc1c(OC)cc(O)c2c1C(=O)c1[nH]c(C(=O)O)c(O)c(=O)c1C2=O | 0.499 µM (active) | 4.11 µM (inactive) | 2.12 µM (inactive) | 3.37 µM (inactive) | 8.43 µM (inactive) | 1.56 µM (inactive) | 22 µM (inactive) | 2.95 µM (inactive) | 4.9 µM (inactive) | 63.1 µM (inactive) | > 100 µM (inactive) | 13.9 µM (inactive) | 6.93 µM (inactive) | 10.4 µM (inactive) | 46.8 µM (inactive) | 19.8 µM (inactive) | 1.69 µM (inactive) | 1.73 µM (inactive) | 1.82 µM (inactive) | –
2 | NC(=S)N/N=C(/C(=O)Nc1nc2ccc([N+](=O)[O-])cc2s1)C1C(=O)NC(=S)NC1=O | 49 µM (inactive) | > 100 µM (inactive) | – | > 100 µM (inactive) | – | 48.6 µM (inactive) | > 100 µM (inactive) | > 100 µM (inactive) | 55.3 µM (inactive) | > 100 µM (inactive) | > 100 µM (inactive) | – | > 100 µM (inactive) | > 100 µM (inactive) | 56.1 µM (inactive) | > 100 µM (inactive) | > 100 µM (inactive) | 63.8 µM (inactive) | 27.7 µM (inactive) | 72.3 µM (inactive)
3 | COc1cc(/C=N/N=C2NCCN2)ccc1O | > 100 µM (inactive) | > 100 µM (inactive) | > 100 µM (inactive) | > 100 µM (inactive) | > 100 µM (inactive) | > 100 µM (inactive) | > 100 µM (inactive) | > 100 µM (inactive) | > 100 µM (inactive) | > 100 µM (inactive) | > 100 µM (inactive) | > 100 µM (inactive) | > 100 µM (inactive) | > 100 µM (inactive) | > 100 µM (inactive) | > 100 µM (inactive) | > 100 µM (inactive) | > 100 µM (inactive) | > 100 µM (inactive) | –
4 | CC(SC(=S)N(C)C)C(=O)Nc1nnc(-c2ccc(Cl)cc2)o1 (stereo not given) | 59.7 µM (inactive) | 53 µM (inactive) | – | 28.8 µM (inactive) | 30.2 µM (inactive) | 80.7 µM (inactive) | 33.3 µM (inactive) | 31 µM (inactive) | 56.4 µM (inactive) | 59.8 µM (inactive) | 24 µM (inactive) | 80.2 µM (inactive) | 4.33 µM (inactive) | 65.9 µM (inactive) | 35.8 µM (inactive) | 3.24 µM (inactive) | 30.8 µM (inactive) | 20 µM (inactive) | > 100 µM (inactive) | 42.4 µM (inactive)
5 | O=C(NC(=S)Nc1ccc(Br)cc1)c1ccc2c(c1)Sc1ccccc1S2 | 24.3 µM (inactive) | 78.7 µM (inactive) | 23.1 µM (inactive) | 23.2 µM (inactive) | 16.1 µM (inactive) | – | 41.8 µM (inactive) | 19 µM (inactive) | 20.6 µM (inactive) | 17.3 µM (inactive) | 33.6 µM (inactive) | 16.9 µM (inactive) | 17.3 µM (inactive) | 21.7 µM (inactive) | 17.9 µM (inactive) | 7.53 µM (inactive) | 24.5 µM (inactive) | 12.9 µM (inactive) | 26.5 µM (inactive) | 19.6 µM (inactive)
6 | CC(=O)Nc1ccc(OC2=CCN(C)CC2)cc1 | – | > 100 µM (inactive) | – | > 100 µM (inactive) | > 100 µM (inactive) | > 100 µM (inactive) | > 100 µM (inactive) | > 100 µM (inactive) | > 100 µM (inactive) | > 100 µM (inactive) | > 100 µM (inactive) | > 100 µM (inactive) | > 100 µM (inactive) | > 100 µM (inactive) | > 100 µM (inactive) | > 100 µM (inactive) | > 100 µM (inactive) | > 100 µM (inactive) | > 100 µM (inactive) | –
7 | NC(=O)NC(=O)c1cccc(CNc2ccc(C(=O)N[C@@H](CCC(=O)O)C(=O)O)cc2)n1 | > 100 µM (inactive) | > 100 µM (inactive) | > 100 µM (inactive) | > 100 µM (inactive) | > 100 µM (inactive) | – | > 100 µM (inactive) | > 100 µM (inactive) | > 100 µM (inactive) | > 100 µM (inactive) | > 100 µM (inactive) | > 100 µM (inactive) | > 100 µM (inactive) | > 100 µM (inactive) | > 100 µM (inactive) | > 100 µM (inactive) | > 100 µM (inactive) | > 100 µM (inactive) | > 100 µM (inactive) | –
8 | Cc1nn(-c2ccccc2)c(C)c1/C=N/NC(=O)c1sc(=S)n(-c2ccc(Cl)cc2)c1N | 3.64 µM (inactive) | 5.4 µM (inactive) | – | 7.74 µM (inactive) | 1.49 µM (inactive) | 2.15 µM (inactive) | 4.69 µM (inactive) | 6 µM (inactive) | 6.44 µM (inactive) | > 100 µM (inactive) | 5.05 µM (inactive) | 1.87 µM (inactive) | 3.73 µM (inactive) | 14.4 µM (inactive) | 4.83 µM (inactive) | 8.2 µM (inactive) | 17.3 µM (inactive) | 4.33 µM (inactive) | 2.4 µM (inactive) | 6.18 µM (inactive)
9 | C=CC1(C)CCC2C(=CCC3C2(C)CC(O)C(O)C3(C)COC2OC(CO)C(O)C(O)C2O)C1 (stereo not given) | > 100 µM (inactive) | > 100 µM (inactive) | > 100 µM (inactive) | > 100 µM (inactive) | > 100 µM (inactive) | – | > 100 µM (inactive) | > 100 µM (inactive) | > 100 µM (inactive) | > 100 µM (inactive) | > 100 µM (inactive) | > 100 µM (inactive) | 41.4 µM (inactive) | > 100 µM (inactive) | 87.9 µM (inactive) | 68.1 µM (inactive) | > 100 µM (inactive) | > 100 µM (inactive) | > 100 µM (inactive) | > 100 µM (inactive)
10 | Cc1ccc(S(=O)(=O)N(CC(O)COc2ccccc2)c2ccc(F)cc2F)cc1 (stereo not given) | 16.4 µM (inactive) | 15.8 µM (inactive) | – | – | – | 11.9 µM (inactive) | 15.3 µM (inactive) | 14.4 µM (inactive) | 18.1 µM (inactive) | 16.6 µM (inactive) | 14.9 µM (inactive) | 21.5 µM (inactive) | 22.5 µM (inactive) | 17.9 µM (inactive) | 15.8 µM (inactive) | 22.8 µM (inactive) | 15.5 µM (inactive) | 13.9 µM (inactive) | 17.3 µM (inactive) | 15.3 µM (inactive)
11 | O=C1Nc2ccccc2/C1=N/N=C1NCCCCN1 | > 100 µM (inactive) | – | > 100 µM (inactive) | > 100 µM (inactive) | > 100 µM (inactive) | – | > 100 µM (inactive) | > 100 µM (inactive) | > 100 µM (inactive) | > 100 µM (inactive) | > 100 µM (inactive) | > 100 µM (inactive) | > 100 µM (inactive) | > 100 µM (inactive) | > 100 µM (inactive) | > 100 µM (inactive) | > 100 µM (inactive) | > 100 µM (inactive) | > 100 µM (inactive) | > 100 µM (inactive)
12 | OCSc1nn(CO)c(=S)s1 | 23.4 µM (inactive) | 21.7 µM (inactive) | 17 µM (inactive) | 24.2 µM (inactive) | 17.7 µM (inactive) | 16.9 µM (inactive) | 28.1 µM (inactive) | 23.8 µM (inactive) | 48.1 µM (inactive) | 23.8 µM (inactive) | 28.1 µM (inactive) | 73.5 µM (inactive) | 0.0643 µM (active) | 23 µM (inactive) | 23.8 µM (inactive) | 23.4 µM (inactive) | 23 µM (inactive) | – | 14.3 µM (inactive) | –
13 | CCN(CC)c1ccc2cc(C(=O)Nc3cccc4ccccc34)c(=N)oc2c1 | 72.9 µM (inactive) | 58.5 µM (inactive) | 64 µM (inactive) | > 100 µM (inactive) | > 100 µM (inactive) | 61 µM (inactive) | > 100 µM (inactive) | 48.4 µM (inactive) | > 100 µM (inactive) | > 100 µM (inactive) | > 100 µM (inactive) | > 100 µM (inactive) | 7.96 µM (inactive) | > 100 µM (inactive) | 89.5 µM (inactive) | – | > 100 µM (inactive) | > 100 µM (inactive) | 82 µM (inactive) | –
14 | COc1ccc2c(c1)CCC1=C/C(=N\NC(N)=O)CCC12C (stereo not given) | > 10 µM (inactive) | > 10 µM (inactive) | > 10 µM (inactive) | > 10 µM (inactive) | > 10 µM (inactive) | – | > 10 µM (inactive) | > 10 µM (inactive) | – | > 10 µM (inactive) | > 10 µM (inactive) | > 10 µM (inactive) | > 10 µM (inactive) | > 10 µM (inactive) | – | > 10 µM (inactive) | – | – | 7.1 µM (inactive) | –
15 | NC(Cc1ccc(S(=O)(=O)O)cc1)C(=O)NC(Cc1ccc(S(=O)(=O)O)cc1)C(=O)NC(Cc1ccc(S(=O)(=O)O)cc1)C(=O)O (stereo not given) | > 100 µM (inactive) | > 100 µM (inactive) | > 100 µM (inactive) | > 100 µM (inactive) | > 100 µM (inactive) | > 100 µM (inactive) | > 100 µM (inactive) | > 100 µM (inactive) | > 100 µM (inactive) | > 100 µM (inactive) | > 100 µM (inactive) | > 100 µM (inactive) | – | > 100 µM (inactive) | > 100 µM (inactive) | > 100 µM (inactive) | > 100 µM (inactive) | > 100 µM (inactive) | > 100 µM (inactive) | > 100 µM (inactive)
